# Like-named read-outs stand apart in the source and are kept apart here.
# Columns and labels:
# cyclooxygenase = target: T1, cyclooxygenase (Rattus norvegicus, UniProt Q63921); experiment: Inhibition of cyclooxygenase derived from rat basophilic leukemia (RBL-1) cells, product C1 (PGD2); type: biochemical; conditions: for inhibition at 1 µM: dose of 1 μM
# T1 construct: microsomal fraction containing lipoxygenase and cyclooxygenase; endogenous in cells; host or cells: RBL-1 (rat basophilic leukemia) cells, homogenate / microsomal fraction
# T1 sequence (Q63921 27-602): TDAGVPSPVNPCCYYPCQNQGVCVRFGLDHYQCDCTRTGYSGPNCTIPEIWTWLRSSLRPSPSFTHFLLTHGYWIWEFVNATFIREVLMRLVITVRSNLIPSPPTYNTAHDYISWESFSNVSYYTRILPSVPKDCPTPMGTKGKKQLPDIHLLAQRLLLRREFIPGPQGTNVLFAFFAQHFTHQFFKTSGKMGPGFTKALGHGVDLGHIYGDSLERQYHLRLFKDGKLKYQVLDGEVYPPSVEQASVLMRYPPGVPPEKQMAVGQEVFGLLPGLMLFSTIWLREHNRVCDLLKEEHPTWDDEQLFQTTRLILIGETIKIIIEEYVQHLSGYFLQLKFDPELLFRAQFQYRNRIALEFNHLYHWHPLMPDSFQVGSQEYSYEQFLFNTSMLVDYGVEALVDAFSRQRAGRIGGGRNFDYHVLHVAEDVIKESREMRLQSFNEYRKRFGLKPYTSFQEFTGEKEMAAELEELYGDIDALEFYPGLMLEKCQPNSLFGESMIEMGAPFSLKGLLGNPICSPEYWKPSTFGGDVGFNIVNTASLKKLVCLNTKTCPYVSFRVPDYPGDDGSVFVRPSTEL
# Description: (§1) The primary screening test used is a determination of the inhibition of lipoxygenase and cyclooxygenase derived from rat basophilic leukemia (RBL-1) cells. The test was carried out according to the following procedure:
# (§2) Single cell suspensions of RBL-1 cells are homogenized to obtain the microsomal fraction containing lipoxygenase and cyclooxygenase. Test compounds are added to the enzyme-containing homogenate for a 5 min preincubation period at 37° C. prior to the addition of ^14 C-arachidonic acid substrate. Following incubation at 37° C. for 15 min, the reaction is stopped by the addition of 2M formic acid and the enzyme-substrate products are extracted into chloroform. An aliquot of the extract is evaporated to dryness, reconstituted in ether to 1/10 original volume, spotted in thin layer chromatography plates and chromatographed. The peak areas of radioactivity representing the products are located by scanning the plates. The quantity of products formed is estimated by measuring the height of the radioactivity peaks observed on the chromatographic scans. Alternatively, the areas of radioactivity are scraped from the plate and the ^14 C quantitated by scintillation counting.
# lipoxygenase = target: T2, lipoxygenase (Rattus norvegicus, UniProt P12527); experiment: Inhibition of lipoxygenase derived from rat basophilic leukemia (RBL-1) cells, products L1 (5,12-di-HETE) and L2 (5-HETE); type: biochemical; conditions: for inhibition at 10 µM: dose of 10 μM
# T2 construct: microsomal fraction containing lipoxygenase and cyclooxygenase; endogenous in cells; host or cells: RBL-1 (rat basophilic leukemia) cells, homogenate / microsomal fraction
# T2 sequence (P12527 1-673): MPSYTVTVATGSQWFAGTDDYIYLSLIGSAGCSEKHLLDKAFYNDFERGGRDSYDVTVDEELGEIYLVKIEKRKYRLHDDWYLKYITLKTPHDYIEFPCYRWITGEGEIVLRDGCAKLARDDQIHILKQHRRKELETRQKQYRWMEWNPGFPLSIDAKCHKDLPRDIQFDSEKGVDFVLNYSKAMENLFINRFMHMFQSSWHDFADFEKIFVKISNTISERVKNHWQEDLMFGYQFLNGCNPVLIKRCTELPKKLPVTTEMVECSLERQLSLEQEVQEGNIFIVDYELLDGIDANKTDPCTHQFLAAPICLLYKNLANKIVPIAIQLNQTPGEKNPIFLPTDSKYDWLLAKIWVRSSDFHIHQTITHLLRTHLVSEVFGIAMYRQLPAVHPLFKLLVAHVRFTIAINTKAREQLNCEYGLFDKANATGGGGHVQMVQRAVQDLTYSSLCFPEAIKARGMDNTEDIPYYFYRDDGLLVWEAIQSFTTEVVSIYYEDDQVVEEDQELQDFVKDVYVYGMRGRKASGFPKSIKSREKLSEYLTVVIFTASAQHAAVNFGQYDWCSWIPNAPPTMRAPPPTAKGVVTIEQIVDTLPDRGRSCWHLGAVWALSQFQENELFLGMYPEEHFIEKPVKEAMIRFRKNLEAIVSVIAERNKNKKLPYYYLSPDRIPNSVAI
# Description: as §1, §2
# [1] = system: SRS-A component of immunologically induced broncho-constriction; experiment: Effect on the SRS-A component of immunologically induced broncho-constriction in guinea pigs; type: in vivo; conditions: Cavia porcellus; guinea pig, intravenous; read-out: ED50 (effective dose in 50% of the animals)
# Description: The test was carried out according to the following procedure:
# Two weeks after immunization with egg albumin, guinea pigs are prepared for bronchoconstriction determination. One hour prior to antigen challenge, each animal is dosed orally with indomethacin and chlorpheniramine. Animals are anesthetized with sodium pentobarbital, the trachea cannulated and the animal artifically respired. Arachidonic acid is administered intravenously prior to antigen challenge. The resulting bronchoconstriction is recorded by the standard lung overflow procedure and the peak increase in intratracheal pressure (mm Hg) over a 10 minute observation period is recorded. Compounds are evaluated for their ability to prevent the increased intratracheal pressure in an experimental group of animals as compared to the medicated (indomethacin+chlorpheniramine+arachidonic acid) control group. The results are expressed in terms of percent inhibition or as ED50 values (effective dose in 50% of the animals).
# [2] = read-out: % Inhibition of cyclooxygenase (C1) formation
# [3] = read-out: % Inhibition of lipoxygenase (L1) formation
# [4] = read-out: % Inhibition of lipoxygenase (L2) formation
# [5] = dose of 1 μM, L1 = 5,12-di-HETE, read-out: % Inhibition of lipoxygenase (L1) formation
# [6] = dose of 1 μM, L2 = 5-HETE, read-out: % Inhibition of lipoxygenase (L2) formation
Compound,IC50 (cyclooxygenase) [nM],inhibition at 1 µM (cyclooxygenase; [2]) [%],"IC50 (lipoxygenase; IC50 L1, L1 = 5,12-di-HETE) [nM]","IC50 (lipoxygenase; IC50 L2, L2 = 5-HETE) [nM]",inhibition at 1 µM (lipoxygenase; [3]) [%],inhibition at 1 µM (lipoxygenase; [4]) [%],inhibition at 1 µM (lipoxygenase; [5]) [%],inhibition at 1 µM (lipoxygenase; [6]) [%],ED50 [1] [mg/kg],"inhibition at 10 µM (cyclooxygenase; dose of 10 μM, read-out: % Inhibition of cyclooxygenase (C1) formation) [%]","inhibition at 10 µM (lipoxygenase; L1 = 5,12-di-HETE, read-out: % Inhibition of lipoxygenase (L1) formation) [%]","inhibition at 10 µM (lipoxygenase; L2 = 5-HETE, read-out: % Inhibition of lipoxygenase (L2) formation) [%]"
"CCCNC(=O)c1ccccc1Nc1ccc(O)cc1 [Example 5(b), 2-(4-Hydroxyphenylamino)-N-propylbenzamide]",> 1000,6,130,110,62,85,–,–,–,–,–,–
"CNC(=O)c1ccccc1Nc1ccc(O)cc1 [Example 7(b), 2-(4-Hydroxyphenylamino)-N-methylbenzamide]",–,2,–,–,–,–,23,48,–,–,–,–
"O=C(c1cc(Cl)ccc1Nc1ccc(O)cc1)N1CCCCC1 [Example 18(b), 1-[5-Chloro-2-(4-hydroxyphenylamino)benzoyl]piperidine]",–,16,–,–,–,–,63,75,–,–,–,–
"O=C(NCc1ccccc1)c1ccccc1Nc1ccc(O)cc1 [Example 11(b), 2-(4-Hydroxyphenylamino)-N-benzylbenzamide]",> 1000,0,70,40,87,96,–,–,0.61,–,–,–
"O=C(c1ccccc1Nc1ccc(O)cc1)N1CCOCC1 [Example 16(c), 4-[2-(4-Hydroxyphenylamino)benzoyl]morpholine]",–,1,–,–,–,–,37,42,–,–,–,–
"O=C1C=CC(=Nc2ccccc2C(=O)N2CCCCC2)C=C1 [Example 2, 1-{2-[(4-Oxo-2,5-cyclohexadien-1-ylidene)amino]benzoyl}piperidine]",> 1000,0,450,130,68,82,–,–,–,–,–,–
"CNC(=O)c1ccc(Cl)cc1Nc1ccc(O)cc1 [Example 21(b), 4-Chloro-2-(4-hydroxyphenylamino)-N-methylbenzamide]",> 1000,–,360,180,–,–,–,–,–,–,–,–
"CC1CCN(C(=O)c2ccccc2Nc2ccc(O)cc2)CC1 [Example 6(b), 1-[2-(4-Hydroxyphenylamino)benzoyl]-4-methylpiperidine]",–,7,–,–,–,–,54,77,–,–,–,–
"O=C(c1ccccc1Nc1cccc(O)c1)N1CCCCC1 [Example 24(d), 1-[2-(3-Hydroxyphenylamino)benzoyl]piperidine]",–,–,–,–,–,–,–,–,–,42,47,56
"CC(C)NC(=O)c1ccccc1Nc1ccc(O)cc1 [Example 9(b), 2-(4-Hydroxyphenylamino)-N-isopropylbenzamide]",–,0,–,–,–,–,72,78,–,–,–,–
"CCN(CC)C(=O)c1ccccc1Nc1ccc(O)cc1 [Example 8(b), N,N-Diethyl-2-(4-hydroxyphenylamino)benzamide]",–,0,–,–,–,–,33,63,–,–,–,–
"COc1ccc(Nc2ccc(O)cc2)c(C(=O)N2CCCCC2)c1 [Example 23(b), 1-[2-(4-Hydroxyphenylamino)-5-methoxybenzoyl]piperidine]",> 1000,19,540,610,89,96,–,–,–,–,–,–
"CCN(C)C(=O)c1ccccc1Nc1ccc(O)cc1 [Example 13(b), 2-(4-Hydroxyphenylamino)-N-ethyl-N-methylbenzamide]",–,0,–,–,–,–,66,77,–,–,–,–
"O=C(c1ccc(Cl)cc1Nc1ccc(O)cc1)N1CCCC1 [Example 19(d), 1-[4-Chloro-2-(4-hydroxyphenylamino)benzoyl]pyrrolidine]",–,7,–,–,–,–,24,42,–,–,–,–
"O=C(NC1CCCCC1)c1ccccc1Nc1ccc(O)cc1 [Example 12(b), N-Cyclohexyl-2-(4-hydroxyphenylamino)benzamide]",> 1000,0,120,110,80,94,–,–,–,–,–,–
"CCCN(CC)C(=O)c1ccccc1Nc1ccc(O)cc1 [Example 14(b), 2-(4-Hydroxyphenylamino)-N-ethyl-N-propylbenzamide]",> 1000,0,180,110,78,95,–,–,–,–,–,–
"CCN(CC)C(=O)c1cc(Cl)ccc1Nc1ccc(O)cc1 [Example 17(d), 5-Chloro-N,N-diethyl-2-(4-hydroxyphenylamino)benzamide]",–,0,–,–,–,–,56,73,–,–,–,–
"O=C(c1ccccc1Nc1ccc(O)cc1)N1CCCC1 [Example 4(b), 1-[2-(4-Hydroxyphenylamino)benzoyl]pyrrolidine]",–,0,–,–,–,–,41,52,–,–,–,–
"O=C(c1ccccc1Nc1ccccc1O)N1CCCCC1 [Example 15(d), 1-[2-(2-Hydroxyphenylamino)benzoyl]piperidine]",> 1000,2,720,180,58,80,–,–,–,–,–,–
"COc1ccc(Nc2ccc(O)cc2)c(C(=O)NCc2ccccc2)c1 [Example 22(d), 2-(4-Hydroxyphenylamino)-N-benzyl-5-methoxybenzamide]",> 1000,0,300,260,81,97,–,–,–,–,–,–
"CN(C)C(=O)c1ccccc1Nc1ccc(O)cc1 [Example 10(b), 2-(4-Hydroxyphenylamino)-N,N-dimethylbenzamide]",–,1,–,–,–,–,34,56,–,–,–,–
"O=C(c1ccc(Cl)cc1Nc1ccc(O)cc1)N1CCCCC1 [Example 20(b), 1-[4-Chloro-2-(4-hydroxyphenylamino)benzoyl]piperidine]",–,12,–,–,–,–,32,44,–,–,–,–
"NC(=O)c1ccccc1Nc1ccc(O)cc1 [Example 3(b), 2-(4-Hydroxyphenylamino)benzamide]",> 1000,14,310,150,78,83,–,–,–,–,–,–

# Source: US4510139A, “Substituted aminobenzamides and their use as agents which inhibit lipoxygenase activity” (Sterling Drug Inc., priority 1984, dated 1985)
